pIC50: −log10 of the molar value.
Experiments:
[1] = biological target: T1, Fructose-1,6-bisphosphatase 1 (Homo sapiens, UniProt P09467); assay: Inhibition of human recombinant FBPase expressed in Escherichia coli BL21(DE3) by phosphoglucose isomerase and glucose-6-phosphate dehydrogenase coupled assay
T1 sequence (P09467 whole entry): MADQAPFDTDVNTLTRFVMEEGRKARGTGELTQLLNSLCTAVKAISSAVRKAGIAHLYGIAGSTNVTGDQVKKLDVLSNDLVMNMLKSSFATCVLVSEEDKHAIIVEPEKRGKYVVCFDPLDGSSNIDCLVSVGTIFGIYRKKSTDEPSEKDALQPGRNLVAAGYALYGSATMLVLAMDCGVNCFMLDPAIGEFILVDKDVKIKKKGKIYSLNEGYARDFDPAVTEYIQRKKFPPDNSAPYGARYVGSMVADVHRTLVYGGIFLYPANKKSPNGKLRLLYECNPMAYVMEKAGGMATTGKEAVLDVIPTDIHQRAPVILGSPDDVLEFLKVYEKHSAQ

[2] = biological target: T1, Fructose-1,6-bisphosphatase 1; assay: Inhibition of FBPase (unknown origin)

Row | pIC50 [1] | pIC50 [2] | SMILES
1 | < 4.30 | – | COc1ccccc1Nc1ccc([N+](=O)[O-])c2[nH]c(C(=O)O)cc12
2 | 5.39 | – | COc1cccc(Nc2cc([N+](=O)[O-])c3[nH]c(C(=O)O)cc3c2)c1
3 | < 4.30 | – | O=C(O)c1cc2c(Nc3ccc(Cl)cc3)ccc([N+](=O)[O-])c2[nH]1
4 | < 4.30 | – | Nc1cccc(-c2ccc([N+](=O)[O-])c3[nH]c(C(=O)O)cc23)c1
5 | 5.27 | – | CC(C)Cc1cc([N+](=O)[O-])c2[nH]c(C(=O)O)cc2c1
6 | < 4.30 | – | COc1cccc(N(C)c2ccc([N+](=O)[O-])c3[nH]c(C(=O)O)cc23)c1
7 | 4.47 | – | Cc1ccc(Nc2ccc([N+](=O)[O-])c3[nH]c(C(=O)O)cc23)cc1
8 | 5.49 | – | Nc1ncnc2c1ncn2[C@@H]1O[C@H](COP(=O)(O)O)[C@@H](O)[C@H]1O [ADENOSINE PHOSPHATE]
9 | 4.91 | – | O=C(O)c1cc2c(Nc3ccc(C(F)(F)F)cc3)ccc([N+](=O)[O-])c2[nH]1
10 | 5.43 | – | CC(=O)Nc1cccc(-c2cc([N+](=O)[O-])c3[nH]c(C(=O)O)cc3c2)c1
11 | < 4.30 | – | O=C(O)c1cc2c(-c3ccc(Cl)cc3)ccc([N+](=O)[O-])c2[nH]1
12 | < 4.30 | – | Nc1cccc(Nc2ccc([N+](=O)[O-])c3[nH]c(C(=O)O)cc23)c1
13 | 4.59 | – | Cc1cccc(-c2ccc([N+](=O)[O-])c3[nH]c(C(=O)O)cc23)c1
14 | 5.35 | – | O=C(O)c1[nH]c2c([N+](=O)[O-])cccc2c1-c1cccc(F)c1
15 | 5.70 | 5.60 | O=C(O)CCc1c(C(=O)O)[nH]c2cc(Cl)cc(Cl)c12
16 | 4.99 | – | CC(C)Cc1c(C(=O)O)[nH]c2c([N+](=O)[O-])cccc12
17 | 5.13 | – | CC(=O)Nc1cccc(-c2c(C(=O)O)[nH]c3c([N+](=O)[O-])cccc23)c1
18 | 5.21 | – | CCc1c(C(=O)O)[nH]c2c([N+](=O)[O-])cccc12
19 | < 4.30 | – | O=C(O)c1cc2c(Nc3cccc(Cl)c3)ccc([N+](=O)[O-])c2[nH]1
20 | 5.11 | – | COc1ccc(Nc2ccc([N+](=O)[O-])c3[nH]c(C(=O)O)cc23)cc1OC
21 | 4.59 | – | COc1cccc(Nc2ccc([N+](=O)[O-])c3[nH]c(C(=O)O)cc23)c1
22 | < 4.30 | – | O=C(O)c1cc2c(-c3ccccc3)ccc([N+](=O)[O-])c2[nH]1
23 | 6.00 | – | CCc1c(C(=O)O)[nH]c2c([N+](=O)[O-])cc(CC(C)C)cc12

More lines, now with the values behind:

Row | SMILES | pIC50 [1] | pIC50 [2]
24 | COc1cccc(-c2ccc([N+](=O)[O-])c3[nH]c(C(=O)O)cc23)c1 | < 4.30 | –
25 | O=C(O)c1cc2c(Nc3ccc([N+](=O)[O-])cc3)ccc([N+](=O)[O-])c2[nH]1 | 5.47 | –
26 | O=C(O)c1cc2c(Nc3cccc([N+](=O)[O-])c3)ccc([N+](=O)[O-])c2[nH]1 | < 4.30 | –
27 | CC(C)Cc1ccc([N+](=O)[O-])c2[nH]c(C(=O)O)cc12 | 5.01 | –
28 | O=C(O)c1cc2c(Nc3cccc(C(F)(F)F)c3)ccc([N+](=O)[O-])c2[nH]1 | 4.54 | –
29 | COc1ccc(Nc2ccc([N+](=O)[O-])c3[nH]c(C(=O)O)cc23)cc1 | < 4.30 | –
30 | CC(=O)Nc1cccc(-c2ccc([N+](=O)[O-])c3[nH]c(C(=O)O)cc23)c1 | 4.73 | –
31 | O=C(O)c1[nH]c2c([N+](=O)[O-])cccc2c1-c1ccccc1 | 4.90 | –
32 | COc1cccc(-c2c(C(=O)O)[nH]c3c([N+](=O)[O-])cccc23)c1 | 4.45 | –
33 | Cc1cccc(Nc2ccc([N+](=O)[O-])c3[nH]c(C(=O)O)cc23)c1 | 5.37 | –
34 | COc1cc(Nc2ccc([N+](=O)[O-])c3[nH]c(C(=O)O)cc23)cc(OC)c1OC | < 4.30 | –
35 | CC(=O)Nc1cccc(Nc2ccc([N+](=O)[O-])c3[nH]c(C(=O)O)cc23)c1 | < 4.30 | –
36 | O=C(O)c1cc2c(Nc3ccccc3)ccc([N+](=O)[O-])c2[nH]1 | < 4.30 | –
37 | N#Cc1cccc(-c2ccc([N+](=O)[O-])c3[nH]c(C(=O)O)cc23)c1 | < 4.30 | –
38 | O=C(O)c1cc2c(-c3cccc(Cl)c3)ccc([N+](=O)[O-])c2[nH]1 | < 4.30 | –
39 | O=C(O)c1cc2c(-c3ccc(C(F)(F)F)cc3)ccc([N+](=O)[O-])c2[nH]1 | < 4.30 | –
40 | N#Cc1ccc(-c2ccc([N+](=O)[O-])c3[nH]c(C(=O)O)cc23)cc1 | < 4.30 | –
41 | O=C(O)c1cc2c(-c3cccc(C(F)(F)F)c3)ccc([N+](=O)[O-])c2[nH]1 | < 4.30 | –
42 | CCCN(c1cccc(OC)c1)c1ccc([N+](=O)[O-])c2[nH]c(C(=O)O)cc12 | < 4.30 | –
